From patent US20250381324A1, “CD31 MIMETIC COATING FOR ENDOVASCULAR STENT” (INSERM (Institut National de la Santé et de la Recherche …, priority 2021, published 2025)
Bridge positions count the residues as written; N and C are the ends. Square brackets hold non-standard residues; d marks the D form. Primed or numbered codes have the meaning given here. Ends that are not written are not given here. * marks the point of attachment. Lys(N3) = [N-]=[N+]=NCCCC[C@H](N)C(=O)O; Ttds = NCCCOCCOCCOCCCNC(=O)CCC(=O)*; hCys = N[C@@H](CCS)C(=O)O; PEG4′ = not defined here

Legend:
[1] = tested on: Primary Human Aortic Endothelial Cells (HAEC); assay: Human aortic endothelial cells grown 48 h on bare or peptide-coated nitinol disks; F-actin / CD31 staining and image analysis; assay type: cell-based; settings: for CD31 expression (physiologic endothelial phenotype), Integrated Density / F-actin expression (cellular stress), Integrated Density: HAEC 48 h on coated nitinol disks; for CD31 expression (physiologic endothelial phenotype), Integrated Density: compared to other modified disks and bare controls, FIGS. 2, 4, 5; for CD31/Actin score: Example 2, FIG. 25, repeated experiments (SP547, SP548 only one measure); for F-actin expression (cellular stress), Integrated Density: compared to bare metal, FIGS. 2, 3, 5
Method: Nitinol disks are left untouched (bare metal) or coated with a domain 1, domain 2 or domain 1 and 2 CD31 analog peptide. The tested peptide is grafted to the nitinol disk following a polydopamine, DBCO-PEG4-amine and azide CD31 derivative peptide using a sequential dip-coating layering procedure. After this step, all the disks are incubated with Human aortic endothelial cells for 48 h. Disks are then rinsed and the cells are fixed in a formalin solution before staining. The staining is fulfilled using phalloidin coupled to AlexaFluor®488 dye (green fluorescence for Actin), DAPI is used for DNA staining and a domain 1 CD31 antibody coupled to APC is used for external Domain 1 staining. The cell adhesion and Actin/CD31 expression was evaluated by image analysis of the surface after staining.
In particular, as per FIG. 2 the bare or coated nitinol disks were placed at the bottom of culture wells. Primary Human Aortic Endothelial Cells (HAEC) were allowed to grow on the disks for a period of 48 h. The disks were thereafter rinsed with phosphate buffered saline, fixed in formalin, and processed for fluorescence microscopy. Disk-adherent cells were immersed in a solution comprising Hoechst 33342 (1 μg/ml, to stain the nuclei), phalloidin coupled to AlexaFluor®488 dye (0.5 μM, to stain F-actin fibers) and a monoclonal antibody directed against CD31 domain 1, coupled to allophycocyanin (to detect the presence and localization of intact CD31 at the cell surface) for 1 hour at 37° C., washed and mounted face down on glass bottom imaging chambers for imaging with an inverted fluorescence microscope.
Surface type is indicated on the Y axis, data are expressed as average±SD (N=6/surface type). Each dot corresponds to a specific surface modification. The F-actin expression relates the cellular stress of the cell in presence of the exogenous material.
In FIG. 4 the surface type is indicated on the Y axis. Each dot corresponds to a specific surface modification. Data are expressed as “Integrated Density” average±SD (N=6/surface type). CD31 expression relates the capacity of endothelial cells to adopt a physiologic phenotype while growing on a given substrate. An important variability is observed in terms of CD31 expression by HAEC according to the surface modification of the nitinol disks.
The “mirror” bars of FIG. 5 report the average Integrated Density of F-actin (left) and of CD31 (right) staining for each of the indicated (Y axis) type of peptide coated onto the disk surface and bare disks. Data are sorted (from the top to the bottom) according to the increase in the cellular stress (actin expression) of each coating. As shown on the figure, the degree of cellular stress (as detected by a high actin expression) and impaired endothelial phenotype (documented by a low CD31 expression) is evident on HAEC grown onto bare metal disks.
The data shown in FIG. 6 are expressed as the ratio between CD31 and F-actin expression.
The effect of different peptides, belonging to the different groups, were tested in batches following the same protocol as in FIG. 6. Different peptides from each group were tested in batches and the effect of individual peptides was repeatedly assessed in separate experiments. Data from all experiments were obtained by computer-assisted analysis of images of the disk side covered with endothelial cells, captured in the blue, green and red channel of an inverted fluorescence microscope. The functional score of the peptides belonging to the different groups was calculated by multiplying the number of cells (as detected by the number of blue, Dapi+ nuclei) for the integrated density of CD31 expression (red signal provided by the binding of a mouse anti-human CD31 monoclonal antibody, clone 9G11, conjugated allophycocyanin) and their product being divided for the integrated density of the F-actin polymerization (Phalloidin coupled to a green fluorochrome). […]

endothelial cells = settings: immobilized peptide, in vitro; cited from earlier work

Row | Substance | CD31/Actin score [1] | also measured
1 | Ac-K(N3)-(Ttds)4-PRhCTLDKKEAIQGGIVRVNhCSVPEEK-CONH2 ({Ac-Lys(N3)-Ttds-Ttds-Ttds-Ttds}-PR[hCys]TLDKKEAIQGGIVRVN[hCys]SVPEEK-NH2; disulfide 3-20) [SP1380] |  | CD31 expression (physiologic endothelial phenotype), Integrated Density [1]: evident positive effect in terms of CD31 expression
2 | Ac-K(N3)-GGSGGSGG-YKDDVLFYNISSMKST-NH2 (Ac-[Lys(N3)]GGSGGSGGYKDDVLFYNISSMKST-NH2; SMILES CC[C@H](C)[C@H](NC(=O)[C@H](CC(N)=O)NC(=O)[C@H](Cc1ccc(O)cc1)NC(=O)[C@H](Cc1ccccc1)NC(=O)[C@H](CC(C)C)NC(=O)[C@@H](NC(=O)[C@H](CC(=O)O)NC(=O)[C@H](CC(=O)O)NC(=O)[C@H](CCCCN)NC(=O)[C@H](Cc1ccc(O)cc1)NC(=O)CNC(=O)CNC(=O)[C@H](CO)NC(=O)CNC(=O)CNC(=O)[C@H](CO)NC(=O)CNC(=O)CNC(=O)[C@H](CCCCN=[N+]=[N-])NC(C)=O)C(C)C)C(=O)N[C@@H](CO)C(=O)N[C@@H](CO)C(=O)N[C@@H](CCSC)C(=O)N[C@@H](CCCCN)C(=O)N[C@@H](CO)C(=O)N[C@H](C(N)=O)[C@@H](C)O) [SP547] | equivalent to those of sections coated by other peptides according to the invention | 
3 | Ac-K(N3)-PEG4-PRVTLDKKEAIQGGIVRVNSSVPEEK-CONH2 (Ac-[Lys(N3)][PEG4′]PRVTLDKKEAIQGGIVRVNSSVPEEK-NH2) [SP1071] | significantly higher than those obtained by the bare metal disks or by disks coated with PDA alone | 
4 | Ac-YKDDVLFYNISSMKST-GGSGGSGG-K(N3)-NH2 (Ac-YKDDVLFYNISSMKSTGGSGGSGG[Lys(N3)]-NH2; SMILES CC[C@H](C)[C@H](NC(=O)[C@H](CC(N)=O)NC(=O)[C@H](Cc1ccc(O)cc1)NC(=O)[C@H](Cc1ccccc1)NC(=O)[C@H](CC(C)C)NC(=O)[C@@H](NC(=O)[C@H](CC(=O)O)NC(=O)[C@H](CC(=O)O)NC(=O)[C@H](CCCCN)NC(=O)[C@H](Cc1ccc(O)cc1)NC(C)=O)C(C)C)C(=O)N[C@@H](CO)C(=O)N[C@@H](CO)C(=O)N[C@@H](CCSC)C(=O)N[C@@H](CCCCN)C(=O)N[C@@H](CO)C(=O)N[C@H](C(=O)NCC(=O)NCC(=O)N[C@@H](CO)C(=O)NCC(=O)NCC(=O)N[C@@H](CO)C(=O)NCC(=O)NCC(=O)N[C@@H](CCCCN=[N+]=[N-])C(N)=O)[C@@H](C)O) [SP548] | equivalent to those of sections coated by other peptides according to the invention | 
5 | KWPALFVR [P8RI] |  | blood element reaction (endothelial cells): reduces the blood element reaction
6 | RDQNFVILEFP-PEG4-K(N3)-NH2 [SP1070] | significantly higher than those obtained by the bare metal disks or by disks coated with PDA alone | F-actin expression (cellular stress), Integrated Density [1]: does not show an influence on the cellular stress compared to the bare metal
7 | SHQMLFYKDDVLFYNISSS-GGSGGSGG-K(N3)-CONH2 (SHQMLFYKDDVLFYNISSSGGSGGSGG[Lys(N3)]-NH2; N-terminus assumed; SMILES CC[C@H](C)[C@H](NC(=O)[C@H](CC(N)=O)NC(=O)[C@H](Cc1ccc(O)cc1)NC(=O)[C@H](Cc1ccccc1)NC(=O)[C@H](CC(C)C)NC(=O)[C@@H](NC(=O)[C@H](CC(=O)O)NC(=O)[C@H](CC(=O)O)NC(=O)[C@H](CCCCN)NC(=O)[C@H](Cc1ccc(O)cc1)NC(=O)[C@H](Cc1ccccc1)NC(=O)[C@H](CC(C)C)NC(=O)[C@H](CCSC)NC(=O)[C@H](CCC(N)=O)NC(=O)[C@H](Cc1c[nH]cn1)NC(=O)[C@@H](N)CO)C(C)C)C(=O)N[C@@H](CO)C(=O)N[C@@H](CO)C(=O)N[C@@H](CO)C(=O)NCC(=O)NCC(=O)N[C@@H](CO)C(=O)NCC(=O)NCC(=O)N[C@@H](CO)C(=O)NCC(=O)NCC(=O)N[C@@H](CCCCN=[N+]=[N-])C(N)=O) [SP745] | significantly higher than those obtained by the bare metal disks or by disks coated with PDA alone | 
8 | [Ac-K(N3)-(Ttds)4-PRVTLDKKEAIQGGIVRVNSSVPEEK-Ttds-K^# (CH2CO)-CONH2]-[QHQMLFYhC^#DDVLFYNISSMK-CONH2] (chain 1 {Ac-Lys(N3)-Ttds-Ttds-Ttds-Ttds}-PRVTLDKKEAIQGGIVRVNSSVPEEK-{Ttds-K(CH2CO)-NH2}; chain 2 QHQMLFY[hCys]DDVLFYNISSMK-NH2; also: thioether at chain B 8 to a chain's C-terminus) [SP1383] | significantly higher than those obtained by the bare metal disks or by disks coated with PDA alone | 
9 | [^#CH2CONH2GTYKSTVIVNNKEKTTAEYQ-(Ttds)4-K(N3)-NH2]-[QHQMLFYhC^#DDVLFYNISSMK-CONH2] (chain 1 GTYKSTVIVNNKEKTTAEYQ-{Ttds-Ttds-Ttds-Ttds-Lys(N3)-NH2}; chain 2 QHQMLFY[hCys]DDVLFYNISSMK-NH2; not fully specified (N-terminus); also: thioether at chain B 8 to a chain's N-terminus) [SP1379] | significantly higher than those obtained by the bare metal disks or by disks coated with PDA alone | 
10 | hCHQMLFYKDDVLFYNISShCK-Ttds-Ttds-Ttds-Ttds-K(N3)-CONH2 ([hCys]HQMLFYKDDVLFYNISS[hCys]K-{Ttds-Ttds-Ttds-Ttds-Lys(N3)-NH2}; cysteine pairing not given here) [SP1374] | significantly higher than those obtained by the bare metal disks or by disks coated with PDA alone | F-actin expression (cellular stress), Integrated Density [1]: low cellular stress (low actin expression); CD31 expression (physiologic endothelial phenotype), Integrated Density ([1]; listed as 1374): evident positive effect in terms of CD31 expression; CD31 expression (physiologic endothelial phenotype), Integrated Density ([1]; listed as SP 1374): consistent functional endothelial phenotype (high CD31 expression)
